{"source": "patent US20250230193A1", "about": "“CYCLIC COMPOUND HAVING SELECTIVE KRAS INHIBITORY EFFECT ON HRAS AND NRAS” (CHUGAI SEIYAKU KABUSHIKI KAISHA, priority 2022, published 2025)", "key": {"[1]": {"target": "GDP-bound HRAS wild-type protein (Homo sapiens, UniProt P01112)", "sequence (P01112 whole entry)": "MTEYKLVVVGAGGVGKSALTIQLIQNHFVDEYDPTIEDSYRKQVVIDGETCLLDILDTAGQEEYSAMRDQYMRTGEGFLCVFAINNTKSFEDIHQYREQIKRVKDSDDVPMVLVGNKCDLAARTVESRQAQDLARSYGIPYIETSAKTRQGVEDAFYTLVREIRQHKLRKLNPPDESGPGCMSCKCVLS", "experiment": "Binding to HRAS by surface plasmon resonance (SPR), Single Cycle Kinetics", "settings": "SPR"}, "[2]": {"target": "GDP-bound NRAS wild-type protein (Homo sapiens, UniProt P01111)", "sequence (P01111 whole entry)": "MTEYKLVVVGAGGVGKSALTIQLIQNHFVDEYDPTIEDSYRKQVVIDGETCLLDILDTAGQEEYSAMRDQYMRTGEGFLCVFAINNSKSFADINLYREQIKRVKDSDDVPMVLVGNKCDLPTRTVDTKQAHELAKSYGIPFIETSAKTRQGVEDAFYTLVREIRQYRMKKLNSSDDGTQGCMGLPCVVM", "experiment": "Binding to NRAS by surface plasmon resonance (SPR), Single Cycle Kinetics", "settings": "SPR"}, "[3]": {"settings": "GDP-bound HRAS wild-type vs GDP-bound KRAS wild-type"}, "[4]": {"settings": "GDP-bound NRAS wild-type vs GDP-bound KRAS wild-type"}}, "note": "Where a SMILES comes first, the peptide text is derived from it. Bridges are numbered along the chain shown (N, C = ends). [ ]: non-standard residue; d: D form. The star is where a group is joined. hPhe(3-Cl-4-CF3) = N[C@@H](CCc1ccc(C(F)(F)F)c(Cl)c1)C(=O)O; NPrPhe(4-CF3) = CCCN[C@@H](Cc1ccc(C(F)(F)F)cc1)C(=O)O; NMeGly(cPent) = CN[C@H](C(=O)O)C1CCCC1; Pro(4,4-Me2) = CC1(C)CN[C@H](C(=O)O)C1; NMeD = CN[C@@H](CC(=O)O)C(=O)O; NMeL = CN[C@@H](CC(C)C)C(=O)O; Azetidin(1-yl) = C1CN(*)C1; Morpholide = C1CN(*)CCO1; Ac5c = NC1(C(=O)O)CCCC1; Sar = CNCC(=O)O", "data": [{"smiles": "CCO[C@@H]1C[C@H]2C(=O)NC3(CC(C)(C)C3)C(=O)N(C)[C@@H](C(CC)CC)C(=O)N(C)[C@H](C(=O)N3CCCC3)CC(=O)N(C)[C@@H](C)C(=O)N[C@@H]([C@@H](C)CC)C(=O)N(C)CC(=O)N(C)[C@H]3C/C=C\\CCN(C3=O)[C@@H](Cc3ccc(C)cc3)C(=O)N(C)CC(=O)N[C@@H](CCc3ccc(C(F)(F)F)c(OC)c3)C(=O)N2C1", "note": "[PP2169]", "values": [{"measurement": "HRAS/KRAS (ratio of KD value with respect to HRAS to KD value with respect to KRAS)", "setting": "[1]; [3]", "value": "A (a compound having 10 or more and less than 20 is denoted as A)"}, {"measurement": "NRAS/KRAS (ratio of KD value with respect to NRAS to KD value with respect to KRAS)", "setting": "[2]; [4]", "value": "AA (a compound having 20 or more is denoted as AA)"}]}, {"smiles": "CCCN1C(=O)CN(C)C(=O)CN(C)C(=O)[C@H]([C@@H](C)CC)NC(=O)[C@H](CC(C)C)N(C)C(=O)C[C@@H](C(=O)N2CCC2)N(C)C(=O)[C@H](C2CCCC2)N(C)C(=O)C2(CCCC2)NC(=O)[C@@H]2CCCN2C(=O)[C@H](CCc2ccc(C(F)(F)F)c(Cl)c2)NC(=O)CN(C)C(=O)[C@@H]1Cc1ccc(C(F)(F)F)cc1", "note": "[PP0172] ([NMeL]I[Sar][Sar][NPrPhe(4-CF3)][Sar][hPhe(3-Cl-4-CF3)]P[Ac5c][NMeGly(cPent)][NMeD]-{Azetidin(1-yl)}; lactam N-11)", "values": [{"measurement": "HRAS/KRAS (ratio of KD for GDP-bound HRAS wild-type to KD for KRAS)", "setting": "[1]; KD ratio HRAS/KRAS", "value": "C (A compound having a KD ratio of 0.1 or more and less than 3 is denoted as C)"}, {"measurement": "NRAS/KRAS (ratio of KD for GDP-bound NRAS wild-type to KD for KRAS)", "setting": "[2]; KD ratio NRAS/KRAS", "value": "B (a compound having 3 or more and less than 10 is denoted as B)"}]}, {"smiles": "CCCN1C(=O)CN(C)C(=O)CNC(=O)[C@H]([C@@H](C)CC)NC(=O)[C@H](CC(C)C)N(C)C(=O)C[C@@H](C(=O)N2CCOCC2)N(C)C(=O)[C@H](C2CCCC2)N(C)C(=O)C2(CCCC2)NC(=O)[C@@H]2CC(C)(C)CN2C(=O)[C@H](CCc2ccc(C(F)(F)F)c(Cl)c2)NC(=O)CN(C)C(=O)[C@@H]1Cc1ccc(C(F)(F)F)cc1", "note": "[PP0448] ([NMeL]IG[Sar][NPrPhe(4-CF3)][Sar][hPhe(3-Cl-4-CF3)][Pro(4,4-Me2)][Ac5c][NMeGly(cPent)][NMeD]-Morpholide; lactam N-11)", "values": [{"measurement": "HRAS/KRAS (ratio of KD value with respect to GDP-bound HRAS wild-type protein to KD value with respect to KRAS)", "setting": "[1]; KD ratio HRAS/KRAS", "value": "C (A compound having a KD ratio of 0.1 or more and less than 3 is denoted as C)"}, {"measurement": "NRAS/KRAS (ratio of KD value with respect to GDP-bound NRAS wild-type protein to KD value with respect to KRAS)", "setting": "[2]; KD ratio NRAS/KRAS", "value": "B (a compound having 3 or more and less than 10 is denoted as B)"}]}, {"smiles": "CCCOC[C@H]1C(=O)N[C@@H]([C@@H](C)CC)C(=O)N(C)CC(=O)N(C)[C@H]2C/C=C\\CCN(C2=O)[C@@H](Cc2ccc(C)cc2)C(=O)N(C)CC(=O)N[C@@H](CCc2ccc(C(F)(F)F)c(OC)c2)C(=O)N2C[C@H](OCC)C[C@H]2C(=O)NC2(CC(C)(C)C2)C(=O)N(C)[C@@H](C2CCCC2)C(=O)N(C)[C@H](C(=O)N(C)C)CC(=O)N1C", "note": "[PP2449]", "values": [{"measurement": "HRAS/KRAS (ratio of KD value with respect to HRAS to KD value with respect to KRAS)", "setting": "[1]; [3]", "value": "A (a compound having 10 or more and less than 20 is denoted as A)"}, {"measurement": "NRAS/KRAS (ratio of KD value with respect to NRAS to KD value with respect to KRAS)", "setting": "[2]; [4]", "value": "A (a compound having 10 or more and less than 20 is denoted as A)"}]}, {"smiles": "CCO[C@@H]1C[C@H]2C(=O)NC3(CC(C)(C)C3)C(=O)N(C)[C@@H](C3CCCC3)C(=O)N(C)[C@H](C(=O)N(C)C)CC(=O)N3CCCCC[C@H]3C(=O)N[C@@H]([C@@H](C)CC)C(=O)N(C)CC(=O)N(C)[C@H]3C/C=C\\CCN(C3=O)[C@@H](Cc3ccc(C(F)(F)F)cc3)C(=O)N(C)CC(=O)N[C@@H](CCc3cc(F)c(C(F)(F)F)c(F)c3)C(=O)N2C1", "note": "[PP1915]", "values": [{"measurement": "HRAS/KRAS (ratio of KD value for HRAS to KD value for KRAS)", "setting": "[1]; KD ratio, GDP-bound HRAS wild-type vs GDP-bound KRAS wild-type", "value": "A (a compound having 10 or more and less than 20 is denoted as A)"}, {"measurement": "NRAS/KRAS (ratio of KD value for NRAS to KD value for KRAS)", "setting": "[2]; KD ratio, GDP-bound NRAS wild-type vs GDP-bound KRAS wild-type", "value": "A (a compound having 10 or more and less than 20 is denoted as A)"}]}, {"smiles": "CC[C@H](C)[C@@H]1NC(=O)[C@H](CC(C)C)N(C)C(=O)C[C@@H](C(=O)N2CCOCC2)N(C)C(=O)[C@H](C2CCC2)N(C)C(=O)C2(CCCC2)NC(=O)[C@@H]2CCCN2C(=O)[C@H](CCc2cc(F)c(C(F)(F)F)c(F)c2)NC(=O)CN(C)C(=O)[C@H](Cc2ccc(C(F)(F)F)cc2)N2CCCC[C@@H](C2=O)N(C)C(=O)CN(C)C1=O", "note": "[PP0566]", "values": [{"measurement": "HRAS/KRAS (ratio of KD value with respect to GDP-bound HRAS wild-type protein to KD value with respect to KRAS)", "setting": "[1]; KD ratio HRAS/KRAS", "value": "B (a compound having 3 or more and less than 10 is denoted as B)"}, {"measurement": "NRAS/KRAS (ratio of KD value with respect to GDP-bound NRAS wild-type protein to KD value with respect to KRAS)", "setting": "[2]; KD ratio NRAS/KRAS", "value": "B (a compound having 3 or more and less than 10 is denoted as B)"}]}, {"smiles": "CCOC[C@H]1C(=O)N[C@@H]([C@@H](C)CC)C(=O)N(C2CC2)CC(=O)N(C)[C@H]2C/C=C\\CCN(C2=O)[C@@H](Cc2ccc(C(F)(F)F)cc2)C(=O)N(C)CC(=O)N[C@@H](CCc2ccc(C(F)(F)F)c(OC)c2)C(=O)N2C[C@H](OCC)C[C@H]2C(=O)N(C)C2(CCC2)C(=O)N(C)[C@@H](C(CC)CC)C(=O)N(C)[C@H](C(=O)N(C)C)CC(=O)N1C", "note": "[PP2315]", "values": [{"measurement": "HRAS/KRAS (ratio of KD value with respect to HRAS to KD value with respect to KRAS)", "setting": "[1]; [3]", "value": "A (a compound having 10 or more and less than 20 is denoted as A)"}, {"measurement": "NRAS/KRAS (ratio of KD value with respect to NRAS to KD value with respect to KRAS)", "setting": "[2]; [4]", "value": "A (a compound having 10 or more and less than 20 is denoted as A)"}]}]}
